Measured values reported in patent US6737383B1, “Herbicidal oxadiazolidines” (priority 1999, dated 2004).

Key:
[1] = tested on: sugar beet; assay: Test B pre/postemergence sugar beet; assay type: in vivo, Beta vulgaris; settings: for Plant response rating, Sugarbeets: Postemergence
Outline: (§1)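 Herbicidal effect was estimated by eye on a ten-point control scale after plants spent twelve to sixteen days in a greenhouse following soil or foliar treatment. Foliar sprays targeted plants at one to four leaves; all doses were formulated in a non-phytotoxic solvent with surfactant.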

[2] = tested on: wheat; assay: Test B pre/postemergence wheat; assay type: in vivo, Triticum aestivum; settings: for Plant response rating, Wheat: Postemergence
Outline: as §1

[3] = tested on: morningglory; assay: Test B pre/postemergence morningglory; assay type: in vivo, Ipomoea hederacea
Outline: as §1

[4] = tested on: velvetleaf; assay: Test B pre/postemergence velvetleaf; assay type: in vivo, Abutilon theophrasti; settings: for Plant response rating, Velvetleaf: Postemergence
Outline: as §1

[5] = tested on: cocklebur; assay: Test B pre/postemergence cocklebur; assay type: in vivo, Xanthium strumarium
Outline: as §1

[6] = tested on: soybean; assay: Test B pre/postemergence soybean; assay type: in vivo, Glycine max; settings: for Plant response rating, Soybean: Postemergence
Outline: as §1

[7] = tested on: wild oat; assay: Test B pre/postemergence wild oat; assay type: in vivo, Avena fatua; settings: for Plant response rating, Wild oats: Postemergence
Outline: as §1

[8] = tested on: purple nutsedge; assay: Test B pre/postemergence purple nutsedge; assay type: in vivo, Cyperus rotundus
Outline: as §1

[9] = tested on: blackgrass; assay: Test B pre/postemergence blackgrass; assay type: in vivo, Alopecurus myosuroides
Outline: as §1

[10] = tested on: crabgrass; assay: Test B pre/postemergence crabgrass; assay type: in vivo, Digitaria sanguinalis
Outline: as §1

[11] = tested on: giant foxtail; assay: Test B pre/postemergence giant foxtail; assay type: in vivo, Setaria faberii
Outline: as §1

[12] = tested on: surinam grass; assay: Test B pre/postemergence surinam grass; assay type: in vivo, Brachiaria decumbens
Outline: as §1

[13] = tested on: corn; assay: Test B pre/postemergence corn; assay type: in vivo, Zea mays
Outline: as §1

[14] = tested on: bedstraw; assay: Test B pre/postemergence bedstraw; assay type: in vivo, Galium aparine; settings: for Plant response rating, Bedstraw: Postemergence
Outline: as §1

[15] = tested on: pigweed; assay: Test B pre/postemergence pigweed; assay type: in vivo, Amaranthus retroflexus; settings: for Plant response rating, Redroot pigweed: Postemergence
Outline: as §1

[16] = tested on: rape; assay: Test B pre/postemergence rape; assay type: in vivo, Brassica napus
Outline: as §1

[17] = Rate 125 g/ha, scale of 0 to 10 where 0 is no effect and 10 is complete control
[18] = Rate 500 g/ha, scale of 0 to 10 where 0 is no effect and 10 is complete control
[19] = Preemergence, Rate 62 g/ha, scale 0 to 10 (0 no effect, 10 complete control)
[20] = Preemergence, Rate 125 g/ha, scale of 0 to 10 where 0 is no effect and 10 is complete control
[21] = Preemergence, Rate 500 g/ha, scale of 0 to 10 where 0 is no effect and 10 is complete control
[22] = Rate 250 g/ha, scale of 0 to 10 where 0 is no effect and 10 is complete control
[23] = Postemergence, Rate 62 g/ha, scale of 0 to 10, 0 is no effect, 10 is complete control
[24] = Postemergence, Rate 125 g/ha, scale of 0 to 10 where 0 is no effect and 10 is complete control
[25] = Postemergence, Rate 500 g/ha, scale of 0 to 10 where 0 is no effect and 10 is complete control
[26] = Rate 250 g/ha, Postemergence, scale of 0 to 10 where 0 is no effect and 10 is complete control

CCC=CCn1c(=O)on(C(=O)N(c2ccccc2)C(C)C)c1=O [Compound 582]
Plant response rating, Sugarbeets [1, 17]: 0
Plant response rating, Sugarbeets [1, 18]: 7
Sugarbeets plant response rating [1, 19]: 0
Sugarbeets plant response rating [1, 20]: 0
Sugarbeets plant response rating (0 to 10 scale) ([1]; Preemergence, Rate 250 g/ha): 0
Sugarbeets plant response rating [1, 21]: 0
Plant response rating, Sugarbeets [1, 22]: 3
Plant response rating, Wheat [2, 17]: 0
Plant response rating, Wheat [2, 18]: 0
Wheat plant response rating [2, 19]: 0
Wheat plant response rating [2, 20]: 0
Wheat plant response rating (0 to 10 scale) ([2]; Preemergence, Rate 250 g/ha): 0
Wheat plant response rating [2, 21]: 0
Plant response rating, Wheat [2, 22]: 0
Morningglory plant response rating [3, 23]: 9
Plant response rating, Morningglory [3, 24]: 10
Plant response rating, Morningglory [3, 25]: 10
Morningglory plant response rating [3, 19]: 0
Morningglory plant response rating [3, 20]: 0
Morningglory plant response rating (0 to 10 scale) ([3]; Preemergence, Rate 250 g/ha): 0
Morningglory plant response rating [3, 21]: 2
Plant response rating, Morningglory [3, 26]: 10
Plant response rating, Velvetleaf [4, 17]: 0
Plant response rating, Velvetleaf [4, 18]: 0
Velvetleaf plant response rating [4, 19]: 0
Velvetleaf plant response rating [4, 20]: 0
Velvetleaf plant response rating (0 to 10 scale) ([4]; Preemergence, Rate 250 g/ha): 4
Velvetleaf plant response rating [4, 21]: 4
Plant response rating, Velvetleaf [4, 22]: 0
Cocklebur plant response rating [5, 23]: 0
Plant response rating, Cocklebur [5, 24]: 0
Plant response rating, Cocklebur [5, 25]: 4
Cocklebur plant response rating [5, 19]: 0
Cocklebur plant response rating [5, 20]: 0
Cocklebur plant response rating (0 to 10 scale) ([5]; Preemergence, Rate 250 g/ha): 0
Cocklebur plant response rating [5, 21]: 0
Plant response rating, Cocklebur [5, 26]: 2
Plant response rating, Soybean [6, 17]: 3
Plant response rating, Soybean [6, 18]: 3
Soybean plant response rating [6, 19]: 0
Soybean plant response rating [6, 20]: 0
Soybean plant response rating (0 to 10 scale) ([6]; Preemergence, Rate 250 g/ha): 0
Soybean plant response rating [6, 21]: 0
Plant response rating, Soybean [6, 22]: 3
Plant response rating, Wild oats [7, 17]: 0
Plant response rating, Wild oats [7, 18]: 3
Wild oats plant response rating [7, 19]: 0
Wild oats plant response rating [7, 20]: 0
Wild oats plant response rating (0 to 10 scale) ([7]; Preemergence, Rate 250 g/ha): 0
Wild oats plant response rating [7, 21]: 0
Plant response rating, Wild oats [7, 22]: 0
Nutsedge plant response rating [8, 23]: 0
Plant response rating, Nutsedge [8, 24]: 0
Plant response rating, Nutsedge [8, 25]: 0
Nutsedge plant response rating [8, 19]: 0
Nutsedge plant response rating [8, 20]: 0
Nutsedge plant response rating (0 to 10 scale) ([8]; Preemergence, Rate 250 g/ha): 0
Nutsedge plant response rating [8, 21]: 0
Blackgrass plant response rating [9, 23]: 3
Plant response rating, Blackgrass [9, 25]: 7
Blackgrass plant response rating [9, 19]: 0
Blackgrass plant response rating [9, 20]: 0
Blackgrass plant response rating (0 to 10 scale) ([9]; Preemergence, Rate 250 g/ha): 0
Blackgrass plant response rating [9, 21]: 0
Plant response rating, Blackgrass [9, 26]: 3
Crabgrass plant response rating [10, 23]: 0
Plant response rating, Crabgrass [10, 24]: 0
Plant response rating, Crabgrass [10, 25]: 3
Crabgrass plant response rating [10, 19]: 0
Crabgrass plant response rating [10, 20]: 0
Crabgrass plant response rating (0 to 10 scale) ([10]; Preemergence, Rate 250 g/ha): 0
Crabgrass plant response rating [10, 21]: 7
Plant response rating, Crabgrass [10, 26]: 3
Giant foxtail plant response rating [11, 23]: 3
Plant response rating, Giant foxtail [11, 24]: 4
Plant response rating, Giant foxtail [11, 25]: 7
Giant foxtail plant response rating [11, 19]: 0
Giant foxtail plant response rating [11, 20]: 5
Giant foxtail plant response rating (0 to 10 scale) ([11]; Preemergence, Rate 250 g/ha): 8
Giant foxtail plant response rating [11, 21]: 8
Plant response rating, Giant foxtail [11, 26]: 9
B. signalgrass plant response rating [12, 23]: 0
Plant response rating, B. signalgrass [12, 24]: 0
Plant response rating, B. signalgrass [12, 25]: 3
B. signalgrass plant response rating [12, 19]: 0
B. signalgrass plant response rating [12, 20]: 0
B. signalgrass plant response rating (0 to 10 scale, 0 is no effect, 10 is complete control) ([12]; Preemergence, Rate 250 g/ha): 2
B. signalgrass plant response rating [12, 21]: 4
Plant response rating, B. signalgrass [12, 26]: 0
Corn plant response rating [13, 23]: 0
Plant response rating, Corn [13, 24]: 0
Plant response rating, Corn [13, 25]: 0
Corn plant response rating [13, 19]: 0
Corn plant response rating [13, 20]: 0
Corn plant response rating (0 to 10 scale) ([13]; Preemergence, Rate 250 g/ha): 0
Corn plant response rating [13, 21]: 0
Plant response rating, Corn [13, 26]: 0
Plant response rating, Bedstraw [14, 17]: 7
Bedstraw plant response rating [14, 19]: 0
Bedstraw plant response rating [14, 20]: 0
Bedstraw plant response rating (0 to 10 scale) ([14]; Preemergence, Rate 250 g/ha): 6
Bedstraw plant response rating [14, 21]: 6
Plant response rating, Bedstraw [14, 22]: 9
Plant response rating, Redroot pigweed [15, 17]: 0
Plant response rating, Redroot pigweed [15, 18]: 7
Redroot pigweed plant response rating [15, 19]: 0
Redroot pigweed plant response rating [15, 20]: 0
Redroot pigweed plant response rating (0 to 10 scale) ([15]; Preemergence, Rate 250 g/ha): 4
Redroot pigweed plant response rating [15, 21]: 9
Plant response rating, Redroot pigweed [15, 22]: 7
Rape plant response rating [16, 23]: 0
Plant response rating, Rape [16, 24]: 0
Plant response rating, Rape [16, 25]: 3
Rape plant response rating [16, 19]: 0
Rape plant response rating [16, 20]: 0
Rape plant response rating (0 to 10 scale) ([16]; Preemergence, Rate 250 g/ha): 0
Rape plant response rating [16, 21]: 3
Plant response rating, Rape [16, 26]: 0
